This passage reports IC50, inhibition and Kd results from patent US9845319B2, “Amide substituted thiazoles as modulators of RORyt” (Janssen Pharmaceutica NV, priority 2014, dated 2017).

Assay [1] concerns IL-17 production by CD4 T cells. Kind of assay: Human Th17 Assay. It is filed as cell-based. As to conditions: 72 h; IL-17 in supernatant, 3 days, human CD4+ T cells; read-out: Human Th17 Assay, IC50. How it is done:
The human Th17 assay tests the effect of RORγt modulatory compounds on IL-17 production by CD4 T cells under conditions which favor Th17 differentiation. Total CD4^+ T cells were isolated from the peripheral blood mononuclear cells (PBMC) of healthy donors using a CD4^+ T cell isolation kit II, following the manufacturer's instructions (Miltenyi Biotec). […] 50 μL of compound at titrated concentrations in DMSO were added into each well at final DMSO concentration at 0.2%. Cells were incubated for 1 hour, then 50 μL of Th17 cell differentiation medium was added to each well. The final concentrations of antibodies and cytokines (R&D Systems) in differentiation medium were: 3×10^6/mL anti-CD3/CD28 beads (prepared using human T cell activation/expansion kit, Miltenyi Biotec), 10 μg/mL anti-IL4, 10 μg/mL anti-IFNγ, 10 ng/mL IL1β, 10 ng/mL IL23, 50 ng/mL IL6, 3 ng/mL TGFβ and 20 U/mL IL2. Cells were cultured at 37° C. and 5% CO2 for 3 days. Supernatants were collected and the accumulated IL-17 in culture was measured by using MULTI-SPOT® Cytokine Plate following manufacture's instruction (Meso Scale Discovery). The plate was read using Sector Imager 6000, and IL-17 concentration was extrapolated from the standard curve. The IC50s were determined by GraphPad.

Assay [2] has as its target T1, full-length human RORγt (Homo sapiens, UniProt P51449).
T1 construct: expressed in transfected cells; host or cells: HEK293T, transiently transfected with pCMV-BD-ROR
T1 sequence (P51449 1-497 isoform P51449-2): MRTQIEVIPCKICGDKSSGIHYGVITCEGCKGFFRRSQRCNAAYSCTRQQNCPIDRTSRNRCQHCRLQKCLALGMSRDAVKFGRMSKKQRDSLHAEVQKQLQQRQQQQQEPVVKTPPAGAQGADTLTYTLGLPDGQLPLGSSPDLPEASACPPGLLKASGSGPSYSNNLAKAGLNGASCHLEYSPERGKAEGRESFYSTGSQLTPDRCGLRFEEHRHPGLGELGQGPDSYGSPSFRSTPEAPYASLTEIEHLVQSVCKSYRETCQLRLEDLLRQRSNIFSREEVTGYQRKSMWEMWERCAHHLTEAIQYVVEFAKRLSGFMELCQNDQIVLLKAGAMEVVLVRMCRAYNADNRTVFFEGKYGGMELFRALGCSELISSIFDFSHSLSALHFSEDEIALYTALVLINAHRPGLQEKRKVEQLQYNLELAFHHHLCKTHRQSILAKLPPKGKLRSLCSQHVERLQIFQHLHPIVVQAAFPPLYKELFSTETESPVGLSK
Description: RORγt (full-length human) Reporter Assay, Conditions A. The format is cell-based. The note with it: for IC50: HEK293T cells, GAL4-DBD-RORγt, luciferase, read-out: RORγt (FL) Reporter Assay A, IC50; for inhibition at 2 µM: read-out: RORγt (FL) Reporter Assay A, % inhibition (* at 2 μM), 2 μM compound concentration (footnote *). The method, boiled down: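 Reporter cells lysed after 16–20 h compound exposure; firefly and Renilla luciferase luminescence measured. Firefly signal normalised to DMSO and saturating reference compound, then to Renilla; IC50 from normalised data versus concentration, percent inhibition relative to DMSO.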

Assay [3] deals with T2, human RORγt ligand binding domain (RORγt LBD) (Homo sapiens, UniProt P51449).
T2 construct: His-tag (N); TurboTEV protease cleavage site (ENLYFQG) (N); made in house; host or cells: E. coli (pHIS1, a modified pET expression vector)
T2 sequence (P51449 with tags, fused parts or gaps): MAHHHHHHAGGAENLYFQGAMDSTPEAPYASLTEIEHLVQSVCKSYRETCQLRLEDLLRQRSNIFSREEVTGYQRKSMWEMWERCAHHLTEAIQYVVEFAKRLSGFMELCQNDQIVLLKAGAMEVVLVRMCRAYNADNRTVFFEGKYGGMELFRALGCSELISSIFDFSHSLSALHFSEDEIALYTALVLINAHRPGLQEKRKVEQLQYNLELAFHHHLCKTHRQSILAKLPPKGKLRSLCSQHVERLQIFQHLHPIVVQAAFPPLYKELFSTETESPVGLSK
Kind of assay: RORγt ThermoFluor assay. The note with it: estimated from thermal shift concentration response. The method, boiled down:
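Thermal shift of RORγt LBD (0.065 mg/mL) with 60 μM 1,8-ANS in 100 mM Hepes pH 7.0, NaCl, GSH, 0.002% Tween-20, heated at 1° C/min. ANS fluorescence tracked versus temperature; ΔTm relative to DMSO wells. Compounds serially diluted 1:2 from 10 mM DMSO stock.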

The target of assay [4] is T1, full-length human RORγt. Description: RORγt (full-length human) Reporter Assay, Conditions B or C. It is filed as cell-based. The note with it: for IC50: HEK293T cells, GAL4-DBD-RORγt, luciferase, read-out: RORγt (FL) Reporter Assay B or C, IC50. How it is done: HEK293T cells were plated at 35,000 per well in 96-well plate in medium of DMEM with 10% FBS. […] After overnight (16 to 20 hours) incubation, media were removed and cells were lysed with 50 μL Glo Lysis Buffer (Promega) for 10-15 minutes followed by 10 minute incubation with 50 uL Dual Glo reagent (Promega) at room temperature. Firefly luciferase luminescence was measured using a BMG Pherastar plate reader. To each well, 50 uL Stop and Glo reagent was added and incubated for 10 minutes at room temperature. Renilla luminescence was measured using a BMG Pherastar plate reader. To calculate the effect of compounds on RORγt activity, firefly values were normalized against values of DMSO only and values of reference compound at saturating concentration, then further normalized against Renilla signals. IC50s were generated by plotting final Renilla normalized data against compound concentration and percent inhibition was calculated against DMSO control. […] HEK293T cells were plated at 8750 cells per well in 384-well plate in medium of DMEM with 10% FBS. […] After overnight (16 to 20 hours) incubation, media were removed and cells were lysed with 20 μL Glo Lysis Buffer (Promega) for 10-15 minutes followed by 10 minute incubation with 20 uL Dual Glo reagent (Promega) at room temperature. Firefly luciferase luminescence was measured using a BMG Pherastar plate reader. To each well, 20 uL Stop and Glo reagent was added and incubated for 10 minutes at room temperature. Renilla luminescence was measured using a BMG Pherastar plate reader. To calculate the effect of compounds on RORγt activity, firefly values were normalized against values of DMSO only and values of reference compound at saturating concentration, then further normalized against Renilla signals. IC50s were generated by plotting final Renilla normalized data against compound concentration and percent inhibition was calculated against DMSO control.
A general note: In a reporter assay the amount or activity of a reporter protein is the signal.

Turning to `C[C@H]1CCCN1C(=O)c1nc(-c2nnc(C(C)(C)O)o2)sc1-c1ccc(C(O)(C(F)(F)F)C(F)(F)F)cc1C(F)(F)F` [Example 7/1, (S)-(5-(4-(1,1,1,3,3,3-hexafluoro-2-hydroxypropan-2-yl)-2-(trifluoromethyl)phenyl)-2-(5-(2-hydroxypropan-2-yl)-1,3,4-oxadiazol-2-yl)thiazol-4-yl)(2-methylpyrrolidin-1-yl)methanone], the IC50 (commonly the midpoint of a concentration-inhibition curve) in assay [1] was determined as 64 nM; in assay [2] it was 38 nM; in assay [4], 6 nM. Moreover, the inhibition (commonly the relative decrease from the control value, in per cent) at 2 µM was 102% in assay [2] and 108% in assay [4] (read-out: RORγt (FL) Reporter Assay B or C, % inhibition (* at 2 μM), 2 μM compound concentration (footnote *)). For the same compound, the Kd (in general, the constant that tells how readily two partners part at equilibrium) in assay [3] was 1 nM.
With `C[C@H]1CCCN1C(=O)c1nc(-c2nnc(C(C)(C)O)n2C)sc1-c1ccc(C(O)(C(F)(F)F)C(F)(F)F)cc1C(F)(F)F` [Example 22, (S)-(5-(4-(1,1,1,3,3,3-Hexafluoro-2-hydroxypropan-2-yl)-2-(trifluoromethyl)phenyl)-2-(5-(2-hydroxypropan-2-yl)-4-methyl-4H-1,2,4-triazol-3-yl)thiazol-4-yl)(2-methylpyrrolidin-1-yl)methanone], the IC50 in assay [2] turned out to be 110 nM; in assay [4], 83 nM. Besides, in assay [2], the inhibition at 2 µM worked out at 99%. In addition, the dissociation constant Kd in assay [3] was 5 nM. The inhibition at 6 µM in assay [4] (read-out: RORγt (FL) Reporter Assay B or C, % inhibition @ 6 μM, 6 μM compound) worked out at 87%.
